Earlier results, collected in US20190070181A1, “FORMULATION OF TICAGRELOR OR PHARMACEUTICALLY ACCEPTABLE SALT THEREOF” (Jiangsu Hengrui Medicine Co., Ltd., priority 2017, published 2019).

Legend:
[1] = not given; remark: listed apart in the source

| SMILES | average t1/2 (in vivo) | solubility in water [1] | time the IPA effect can be maintained (platelet aggregation; 180 mg loading dose) [h] | IPA maximum (platelet aggregation; 2-4 hours after 180 mg loading dose) [%] | mean inhibition of platelet aggregation (IPA) (platelet aggregation; 0.5 hour after 180 mg loading dose) [%] | dose up to which the pharmacokinetics is linear (in vivo) | median tmax (oral administration) | average recovery of the radiation in feces (radiolabeled ticagrelor, feces) [%] | average recovery of the radiation (radiolabeled ticagrelor, total) | average recovery of the radiation in urine (radiolabeled ticagrelor, urine) [%] |
| --- | --- | --- | --- | --- | --- | --- | --- | --- | --- | --- |
| CCCSc1nc(N[C@@H]2C[C@H]2c2ccc(F)c(F)c2)c2nnn([C@@H]3C[C@H](O)[C@@H](O)[C@H]3O)c2n1 [AR-C124910XX] | about 9 hours |  |  |  |  |  |  |  |  |  |
| CCCSc1nc(N[C@@H]2C[C@H]2c2ccc(F)c(F)c2)c2nnn([C@@H]3C[C@H](OCCO)[C@@H](O)[C@H]3O)c2n1 [ticagrelor, (1S,2S,3R,5S)-3-[7-{[(1R,2S)-2-(3,4-difluorophenyl)cyclopropyl]amino}-5-(propylthio)-3H-[1,2,3]-triazolo[4,5-d]pyrimidin-3-yl]-5-(2-hydroxyethoxy)cyclopentane-1,2-diol] | about 7 hours | almost insoluble in water | 2 to 8 | 89 | 41 | up to 1260 mg | about 1.5 hours | 58 | about 84% | 26 |
